{"source": "patent US20240067682A1", "about": "“PEPTIDE HAVING PLANT STEM CELL-INDUCING EFFECT AND PLANT PEST RESISTANCE-INDUCING EFFECT” (KYOTO PREFECTURAL PUBLIC UNIVERSITY CORPORATION, priority 2020, published 2024)", "key": {"[1]": {"test_system": "Arabidopsis thaliana expressing stem cell marker PLT1-GFP", "assay": "Stem cell induction in Arabidopsis thaliana roots expressing stem cell marker PLT1-GFP (confocal imaging)", "format": "in vivo", "conditions": "600 nM peptide aqueous solution, immersion 2 days", "procedure": "Arabidopsis thaliana roots were treated with CAP peptide ([…]). Arabidopsis thaliana expressing stem cell marker PLT1-GFP was immersed in water or a 600 nM peptide aqueous solution for 2 days, and GFP fluorescent images and bright field images were obtained with a confocal laser microscope."}, "[2]": {"test_system": "genes related to freezing tolerance and drought tolerance", "assay": "RNA-seq gene expression after 4 hours immersion in CAP peptide", "format": "in vivo, Arabidopsis thaliana", "conditions": "600 nM, immersion 4 hours, vs water", "procedure": "RNA of Arabidopsis thaliana immersed in water or a 600 nM CAP peptide solution for 4 hours was extracted, and gene expression was compared by RNA-seq analysis. Network analysis was then performed on genes with increased expression."}, "[3]": {"test_system": "wild-type Arabidopsis thaliana seeds", "assay": "Osmotic and drought tolerance: growth of peptide-immersed seeds on excess mannitol- or sorbitol-containing medium", "format": "in vivo", "procedure": "Next, wild-type Arabidopsis thaliana seeds were immersed in water (Control) or 600 nM CAP peptide for 5 minutes and then grown on an excess mannitol-containing medium. Further, wild-type Arabidopsis thaliana seeds were immersed in water (Control) or 600 nM CAP peptide overnight, and then grown on an excess sorbitol-containing medium."}, "[4]": {"test_system": "genes related to disease resistance", "assay": "RNA-seq gene expression after 48 hours immersion in CAP peptide", "format": "in vivo, Arabidopsis thaliana", "conditions": "600 nM, immersion 48 hours, vs water", "procedure": "RNA of Arabidopsis thaliana immersed in water or a 600 nM CAP peptide solution for 48 hours was extracted, and gene expression was compared by RNA-seq analysis. Network analysis was then performed."}, "[5]": {"test_system": "Pseudomonas syringae pv tomato DC3000", "assay": "DC3000 infection of Arabidopsis thaliana leaves sprayed with 600 nM CAP peptide, bacterial count", "format": "in vivo", "conditions": "leaves sprayed with 600 nM CAP peptide/0.02% Silwet L-77 24 hours before infection; counted 2 days after infection", "procedure": "Next, Arabidopsis thaliana leaves were sprayed with water/0.02% Silwet L-77 (Control) or 600 nM CAP peptide/0.02% Silwet L-77, and 24 hours later, infected with Pseudomonas syringae pv tomato DC3000 (DC3000) with an OD600 of 0.2×10^−3. 2 days later, DC3000 obtained from leaf fragments cut into 4-mm-diameter circles was diluted and spotted on LB medium containing kanamycin. After incubation at 28° C. for 24 hours, the number of bacteria per unit area was counted."}, "[6]": {"test_system": "Pseudomonas syringae DC3000", "assay": "DC3000 inoculation of Arabidopsis thaliana leaves applied with 60 nM CAP peptide", "format": "in vivo", "procedure": "Arabidopsis thaliana leaves applied with water or 60 nM CAP peptide were inoculated with Pseudomonas syringae DC3000."}, "[7]": {"test_system": "Pseudomonas syringae pv tomato DC3000", "assay": "DC3000 inoculation of Brassica rapa leaves sprayed with 60 nM CAP peptide", "format": "in vivo", "procedure": "Brassica rapa leaves were sprayed with water or a 60 nM CAP peptide solution in advance, and one day later, inoculated with plant pathogen Pseudomonas syringae pv tomato DC3000 (DC3000). 2 days after infection, DC3000 obtained from leaf fragments cut into 4-mm-diameter circles was diluted, spotted on LB medium containing kanamycin, and incubated at 28° C. for 24 hours."}, "[8]": {"test_system": "Arabidopsis thaliana seeds", "assay": "Germination of Arabidopsis thaliana seeds harvested 10 years before", "format": "in vivo", "conditions": "seeds immersed in 1, 10 or 100 μM CAP peptide for 2 hours; measured 2 weeks after sowing", "procedure": "Arabidopsis thaliana seeds harvested 10 years before and not naturally germinated were immersed in 0, 1, 10, or 100 μM CAP peptide for 2 hours and then sown. The germination rate was measured 2 weeks later."}, "Rorippa aquatica": {"test_system": "Rorippa aquatica", "assay": "Agrobacterium transformation of Rorippa aquatica in the presence of CAP peptide", "format": "in vivo", "conditions": "1 μM CAP peptide mixed with Agrobacterium carrying GFP-TUB6 plasmid", "procedure": "Agrobacterium introduced with a plasmid expressing GFP-TUB6 protein was mixed with CAP peptide to final concentrations of 50 nM, 1 μM, and 10 μM, and transformed into Rorippa aquatica."}, "[9]": {"test_system": "Cherry tomato Sun Cherry seedlings", "assay": "Growth promotion of cherry tomato Sun Cherry seedlings", "format": "in vivo", "conditions": "1 μM CAP peptide sprayed twice (Jul. 21 and July 28); t-test p<0.05", "procedure": "Cherry tomato Sun Cherry seedlings were purchased, sprayed with 1 μM CAP peptide on Jul. 21, 2021, and then grown in planters in an alley. The second 1 μM CAP peptide treatment was performed on July 28."}, "[10]": {"test_system": "Pseudomonas syringae pv tomato DC3000", "assay": "Disease tolerance test with CAP6 peptide: DC3000 infection of sprayed Arabidopsis thaliana leaves", "format": "in vivo", "conditions": "60 nM CAP6 peptide/0.02% Silwet L-77 sprayed 48 hours before infection; counted one day after infection", "procedure": "Multiple types (76 types) of CAP proteins derived from Schlechtendalia chinensis, Caloptilia cecidophora, Borboryctis euryae, Caloptilia ryukyuensis, Rhus javanica, and Arabidopsis thaliana were aligned. From the consensus sequence (FIG. 9), FTQIVW (SEQ ID NO: 21) was determined (hereinafter referred to as “CAP6 peptide”). Then, Arabidopsis thaliana leaves were sprayed with 0.02% Silwet L-77 (Control), 60 nM CAP peptide/0.02% Silwet L-77, or 60 nM CAP6 peptide/0.02% Silwet L-77, and 48 hours later, infected with Pseudomonas syringae pv tomato DC3000 (DC3000) with an OD600 of 0.2×10^−3. One day later, DC3000 obtained from leaf fragments cut into 5-mm-diameter circles was diluted and spotted on LB medium containing kanamycin. 24 hours later, the number of bacteria per unit area was counted."}}, "data": [{"substance": "TQVVWKSTTNIGVGILIVNGTV (partial peptide of CAP) [CAP peptide, synthetic peptide from the conserved region of insect CAP (cysteine-rich secretory protein, antigen 5, and pathogenesis-related 1)]", "values": [{"measurement": "transformation of differentiated cells into stem cells", "setting": "[1]; PLT1-GFP marker", "value": "differentiated cells were transformed into stem cells"}, {"measurement": "induction of gall-like structure", "setting": "[1]; roots", "value": "induced a gall-like structure"}, {"measurement": "increase in expression of genes related to freezing tolerance and drought tolerance", "setting": "[2]", "value": "≥ 2", "unit": "factor"}, {"measurement": "root extension on excess mannitol-containing medium vs control", "setting": "[3]; 600 nM, 5 minutes immersion, high-osmotic pressure conditions", "value": "extended more"}, {"measurement": "root extension on excess sorbitol-containing medium vs control", "setting": "[3]; 600 nM, overnight immersion, dry conditions", "value": "extended more"}, {"measurement": "growth on excess mannitol-containing medium, mean value", "setting": "[3]; seeds immersed in 600 nM CAP peptide for 5 minutes, high-osmotic pressure conditions, FIG. 3 upper", "value": "11.69 (S.D.=1.55)"}, {"measurement": "growth on excess sorbitol-containing medium, mean value", "setting": "[3]; seeds immersed in 600 nM CAP peptide overnight, dry conditions, FIG. 3 lower", "value": "7.71 (S.D.=1.39)"}, {"measurement": "increase in expression of genes related to disease resistance", "setting": "[4]", "value": "2 to 3", "unit": "factor"}, {"measurement": "growth of bacteria after infection", "setting": "[5]", "value": "suppressed the growth of bacteria"}, {"measurement": "growth of the pathogen", "setting": "[6]; 4 days after infection", "value": "significantly inhibited"}, {"measurement": "plant body growth vs water treatment", "setting": "[6]; 13 days after infection", "value": "grew much larger"}, {"measurement": "seed yield vs water treatment", "setting": "[6]; 13 days after pathogen infection", "value": "yielded more seeds"}, {"measurement": "freshness after pathogen treatment vs water treatment", "setting": "[7]; 60 nM CAP peptide sprayed one day before inoculation", "value": "freshness was maintained for a longer period of time"}, {"measurement": "inhibition of bacterial growth compared with water treatment", "setting": "[7]; 60 nM CAP peptide, 2 days after pathogen inoculation", "value": "≥ 1000", "unit": "times"}, {"measurement": "germination rate compared with gibberellin treatment", "setting": "[8]", "value": "much higher germination rate"}, {"measurement": "transformation efficiency", "setting": "Rorippa aquatica", "value": "high efficiency transformation"}, {"measurement": "effect of promoting stem extension compared with CAP-untreated group", "setting": "[9]", "value": "significantly confirmed"}]}, {"substance": "FTQIVW (consensus sequence of CAP) [CAP6 peptide]", "values": [{"measurement": "disease tolerance effect", "setting": "[10]", "value": "a remarkable effect was obtained"}]}]}
